In patent EP3991729A1, “USE OF AMLEXANOX IN PREPARING ANTI-HEPATITIS VIRUS DRUG” (Marine Biomedical Research Institute Of Qingdao Co., Ltd., priority 2019, dated 2020):

Columns and labels:
hepatitis B virus [1] = assay: HBV transgenic mouse model, serum HBsAg by ELISA; type: in vivo, male C57BL/6-HBV transgenic mice; settings: 48 mg/kg intragastric once daily for 35 days, Figure 18
Method: Ten male C57BL/6-HBV transgenic mice (provided by Beijing Vitalstar Biotechnology Co., Ltd.) aged six weeks were randomly divided into two groups (control group, n=5; administration group, n=5).
Route of administration: Intragastric administration, 1mL sterile syringe was used for administration.
Dosing frequency: The drug was administered once daily for 35 consecutive days, with free access to food and water.
Dose-volume: 10 mL/kg. The dose-volume for each animal was determined based on the most recent body weight before administration.
The serum was separated and diluted 5000 times with PBS, respectively. The ELISA kit detected the concentration of HBV surface antigen (HBsAg). The OD value at 450 nm was measured on a microplate reader.
The inhibition rate was calculated according to the following formula: Inhibition rate = [(OD450controlwell−OD450dosewell)/OD450 control; well] × 100% [formula]

hepatitis B virus [2] = assay: Mouse venous hypertension model (genotype B), HBsAg in peripheral blood by ELISA; type: in vivo, Wild-type mice (C57/B6)
Method: . On the 9th day after infection, about 100µl/mouse of blood was harvested from the tail to separate serum, and the concentration of HBsAg in peripheral blood was detected by ELISA. The OD value at 450nm was measured on a microplate reader.
. On the 9th day after infection, about 100µl of blood was harvested from each animal, serum was separated, and the concentration of HBsAg in peripheral blood was measured by ELISA.

MCF7 cells = assay: Cytotoxicity test, MTT assay; type: cell-based
Method: (§1) […]. Various cells in the logarithmic growth phase were seeded in 96-well plates at 6,000 cells/well and cultured for 24h. […]. The dosage of DMSO in the solvent control group was based on the maximum dose of 0.1% used in the test group, with four duplicate wells for each concentration. Cells were treated with the drug for 72h and then added with 20µL 5 mg/mL MTT, cultured at 37°C for 4h, after added 100 µ L triple solution (10% SDS, 5% isobutanol, 12 mM hydrochloric acid), 96-well cell culture plate was placed in an incubator containing 5% CO2 at 37 ± 1°C overnight. OD value at 570nm was measured on a microplate reader.
(§2) The inhibition rate of tumor cell growth was calculated according to the following formula: Inhibition rate(%) = [(OD570controlwell−OD570dosewell)/OD570controlwell] × 100. [formula]

293 cells = assay: Cytotoxicity test, MTT assay; type: cell-based; settings: Homo sapiens, HEK293, 72 h, read-out: Inhibition (%) 293
Method: as §1, §2

HepG2 cells = assay: Cytotoxicity test, MTT assay; type: cell-based; settings: Homo sapiens, HepG2, 72 h, read-out: Inhibition (%) Hep G2
Method: as §1, §2

HCT-116 cells = assay: Cytotoxicity test, MTT assay; type: cell-based
Method: as §1, §2

A549 cells = assay: Cytotoxicity test, MTT assay; type: cell-based; settings: Homo sapiens, A549, 72 h, read-out: Inhibition (%) A549
Method: as §1, §2

MKN45 cells = assay: Cytotoxicity test, MTT assay; type: cell-based
Method: as §1, §2

Hela cells = assay: Cytotoxicity test, MTT assay; type: cell-based; settings: Homo sapiens, 72 h, read-out: Inhibition (%) Hel a
Method: as §1, §2

THP-1 cells = assay: Cytotoxicity test, MTT assay; type: cell-based; settings: Homo sapiens, THP-1, 72 h, read-out: Inhibition (%) THP -1
Method: as §1, §2

Huh7 cells = assay: Cytotoxicity test, MTT assay; type: cell-based
Method: as §1, §2

[3] = system: alanine aminotransferase (ALT); assay: Mouse venous hypertension model (genotype A), serum alanine aminotransferase (ALT) activity, colorimetric kit; settings: 25-200 mg/day (converted adult dose), once a day oral gavage, Figure 16
Method: Six-week-old male C57 mice were rapidly injected with 10µg/mouse of viral genomic DNA (genotype A) by tail vein injection in a short period. Viral infection was established using a venous hypertension model and randomly divided into groups. […] At the same time, a blank control was set up, and oral administration in uninfected mice was equivalent to the model group.
On days 1, 3, and 7 of administration, an appropriate amount of blood was collected from the tail vein of mice in each group. On day 9, the remaining peripheral blood was collected after the mice were sacrificed. All blood samples were centrifuged to obtain serum, divided into two portions. One was used to detect the concentration of HBsAg by ELISA, and the other was used to detect the enzyme activity of alanine aminotransferase (ALT) by alanine aminotransferase kit (colorimetric method) (Nanjing Jiancheng Bioengineering Institute).

hepatitis B virus [4] = assay: HBsAg in culture supernatant of HBV DNA-transfected HepG2 cells, ELISA; settings: 10µM, HepG2, 96h after transfection, Figure 2
Method: Hepatocyte HepG2 cells with good growth status were seeded in 6-well plates at 10^6 cells/well and, after being left overnight, 2µg of linear HBV viral genomic DNA (genotype B) was transfected into each well using lipofectamine 2000 to establish a viral infection cell model. […] An equal volume of DMSO (1/1000, v/v) was added to the control group. Forty-eight hours after transfection, cells from each well were passaged into one 6cm culture plate. After transfection, HBsAg levels in the culture supernatant were quantified by ELISA 96h.
Well-grown hepatocyte HepG2 cells 10^6 cells/well were seeded in 6-well plates, and after overnight, 2µg of linear HBV viral genomic DNA (genotype B) was transfected per well using Lipofectamine 2000. […] An equal volume of DMSO (1/1000, v/v) was added to the control group. Forty-eight hours after transfection, cells from each well were passaged into one 6cm culture plate. HBV surface antigen (HBsAg) in the culture medium was detected by ELISA 96h after transfection.

hepatitis B virus [5] = assay: HBV genomic DNA replication in HepG2 cells transfected with linear HBV genomic DNA, quantitative PCR of circular HBV DNA; type: cell-based, hepatitis B virus (genotype B); settings: 10µM, HepG2, 96 hours, Figure 1
Method: After 96 hours, cells were divided into two groups, with genomic DNA extracted from one. From the other, free DNA was extracted using HIRT extraction, and linear DNA was removed using DNA exonuclease (NEB). Circular HBV DNA and genomic GAPDH were detected by quantitative PCR. The highest value of circular HBV DNA was defined as 100% (n=5).

[6] = Homo sapiens, MCF7, 72 h, read-out: Inhibition (%) MC F7
[7] = Homo sapiens, HCT-116, 72 h, read-out: Inhibition (%) HCT-116
[8] = Homo sapiens, MKN-45, 72 h, read-out: Inhibition (%) MKN 45
[9] = Homo sapiens, Huh-7, 72 h, read-out: Inhibition (%) Hu h7

With `CC(C)c1ccc2oc3nc(N)c(C(=O)O)cc3c(=O)c2c1` [amlexanox, Amlexanox] the “HBV surface antigen (HBsAg) in serum” value (hepatitis B virus [1]) was “could inhibit HBsAg level in transgenic mice”, the “concentration of HBsAg in peripheral blood” value (hepatitis B virus [2]; 50 mg/kg/day oral gavage, 9th day after infection, Figure 3) was “reduced HBsAg levels in a mouse model of venous hypertension, and its effect is better than that of lamivudine” and the “dose of significant effect (inhibition of hepatitis B virus, HBsAg)” value (hepatitis B virus [2]; oral gavage, 9th day after infection, Figure 7) was 10 to 50 mg/kg. The “concentration of HBsAg in peripheral blood, dose-response relationship” value (hepatitis B virus [2]; oral gavage, daily dose as in Figure 7, 9th day after infection) was “its ability to inhibit the hepatitis B virus in the venous hypertension mouse model is enhanced”, the inhibition at 3.125 µM (MCF7 cells; [6]) was 1.03% and the inhibition at 6.25 µM (MCF7 cells; [6]) was 0.86%. It also gave an inhibition at 12.5 µM (MCF7 cells; [6]) of 1.22%, an inhibition at 25 µM (MCF7 cells; [6]) of 3.8% and an inhibition at 50 µM (MCF7 cells; [6]) of 16.4%. The inhibition at 100 µM (MCF7 cells; [6]) was 43.5%, the cytotoxicity (MCF7 cells; MCF7, 100 µM, 72h) was “some cytotoxicity” and the inhibition at 3.125 µM (293 cells) was 0%. For the same molecule, the inhibition at 6.25 µM (293 cells) was 0%, the inhibition at 12.5 µM (293 cells) was 0% and the inhibition at 25 µM (293 cells) was 0%. For the same molecule, the inhibition at 50 µM (293 cells) was 0%, the inhibition at 100 µM (293 cells) was 11.3% and the inhibition at 3.125 µM (HepG2 cells) was 0%. The inhibition at 6.25 µM (HepG2 cells) was 0%, the inhibition at 12.5 µM (HepG2 cells) was 0% and the inhibition at 25 µM (HepG2 cells) was 0%. For the same molecule, the inhibition at 50 µM (HepG2 cells) was 0%, the inhibition at 100 µM (HepG2 cells) was 4.8% and the cytotoxicity (HCT-116 cells; HCT-116, 100 µM, 72h) was “some cytotoxicity”. The inhibition at 3.125 µM (HCT-116 cells; [7]) was 0%, the inhibition at 6.25 µM (HCT-116 cells; [7]) was 0% and the inhibition at 12.5 µM (HCT-116 cells; [7]) was 0.11%. It also gave an inhibition at 25 µM (HCT-116 cells; [7]) of 1.17%, an inhibition at 50 µM (HCT-116 cells; [7]) of 6.41% and an inhibition at 100 µM (HCT-116 cells; [7]) of 31.1%. The inhibition at 3.125 µM (A549 cells) was 3.55%, the inhibition at 6.25 µM (A549 cells) was 1.31% and the inhibition at 12.5 µM (A549 cells) was 0.65%. It also gave an inhibition at 25 µM (A549 cells) of 0%, an inhibition at 50 µM (A549 cells) of 1.08% and an inhibition at 100 µM (A549 cells) of 4.54%. The inhibition at 3.125 µM (MKN45 cells; [8]) was 0%, the inhibition at 6.25 µM (MKN45 cells; [8]) was 3.61% and the inhibition at 12.5 µM (MKN45 cells; [8]) was 4.9%. The inhibition at 25 µM (MKN45 cells; [8]) was 9.22%, the inhibition at 50 µM (MKN45 cells; [8]) was 13.9% and the inhibition at 100 µM (MKN45 cells; [8]) was 30.9%. For the same molecule, the cytotoxicity (MKN45 cells; MKN45, 100 µM, 72h) was “some cytotoxicity”, the inhibition at 3.125 µM (Hela cells) was 3.08% and the inhibition at 6.25 µM (Hela cells) was 2.48%. The inhibition at 12.5 µM (Hela cells) was 1.7%, the inhibition at 25 µM (Hela cells) was 0.79% and the inhibition at 50 µM (Hela cells) was 1.89%. It also gave an inhibition at 100 µM (Hela cells) of 6.15%, an inhibition at 3.125 µM (THP-1 cells) of 0% and an inhibition at 6.25 µM (THP-1 cells) of 0%. For the same molecule, the inhibition at 12.5 µM (THP-1 cells) was 0%, the inhibition at 25 µM (THP-1 cells) was 0% and the inhibition at 50 µM (THP-1 cells) was 0%. For the same molecule, the inhibition at 100 µM (THP-1 cells) was 7.44%, the inhibition at 3.125 µM (Huh7 cells; [9]) was 0% and the inhibition at 6.25 µM (Huh7 cells; [9]) was 7.28%. For the same molecule, the inhibition at 12.5 µM (Huh7 cells; [9]) was 15%, the inhibition at 25 µM (Huh7 cells; [9]) was 18.1% and the inhibition at 50 µM (Huh7 cells; [9]) was 26.2%. For the same molecule, the inhibition at 100 µM (Huh7 cells; [9]) was 35.2%, the cytotoxicity (Huh7 cells; Huh7, 100 µM, 72h) was “some cytotoxicity” and the “enzyme activity of alanine aminotransferase (ALT) in serum” value [3] was “can effectively reduce alanine aminotransferase activity”. The “HBsAg levels in the culture supernatant” value (hepatitis B virus [4]) was “reduces HBsAg levels in cell models, and its effect is superior to that of existing clinical drugs” and the “Circular HBV DNA (hepatitis B virus genomic DNA replication)” value (hepatitis B virus [5]) was “inhibits hepatitis B virus genomic DNA replication in cell models with effects comparable to existing clinical drugs”.
